Data from US20100310467A1, “COMPOSITION AND METHOD FOR GENERATING A METABOLIC PROFILE USING 13C-MR DETECTION” (priority 2007, published 2010).
Values belong to the compound of their own block, whether it stands above or below them.

Key:
[1] = Liquid state polarisation and T1 by liquid state 13C-NMR; assay type: physicochemical; conditions: for T1: at 9.4 T; for Liquid state polarisation: liquid state 13C-NMR at 400 MHz, after 90 minutes DNP and dissolution
Method: In a similar way, the level of polarisation for dissolved hyperpolarised ^13C-fumarate may be determined by liquid state NMR measurements. Again the signal intensity of the dissolved hyperpolarised ^13C-fumarate is compared with the signal intensity of the dissolved ^13C-fumarate before polarisation. The level of polarisation is then calculated from the ratio of the signal intensities of ^13C-fumarate before and after polarisation.
After 90 minutes of dynamic nuclear polarisation, the obtained frozen polarised composition was dissolved in 6 ml of a solution prepared from 5.87 ml water (100 mg/l EDTA added), 133 μl NaOH aq (2 M) and 30 mg NaCl. The pH of the final solution containing the dissolved composition was 7.2. The ^13C1,4-fumarate concentration in said final solution was 50 mM.
Liquid state polarisation was determined by liquid state ^13C-NMR at 400 MHz to be 21%. T1 at 9.4 T was 34 s.

[2] = Solid state polarisation by solid state 13C-NMR after DNP; assay type: physicochemical; conditions: DNP at 1.2 K, 3.35 T, microwave 93.90 GHz, trityl radical and Gd-chelate
Text: The level of polarisation may for instance be determined by solid state ^13C-NMR measurements in solid hyperpolarised ^13C-fumarate, e.g. solid hyperpolarised ^13C-fumarate obtained by dynamic nuclear polarisation (DNP) of ^13C-fumarate. The solid state ^13C-NMR measurement preferably consists of a simple pulse-acquire NMR sequence using a low flip angle. The signal intensity of the hyperpolarised ^13C-fumarate in the NMR spectrum is compared with signal intensity of ^13C-fumarate in a NMR spectrum acquired before the polarisation process. The level of polarisation is then calculated from the ratio of the signal intensities of before and after polarisation.
The probe is inserted into the probe-retaining container, submerged in the liquid helium and irradiated with microwaves, preferably at a frequency of about 94 GHz at 200 mW. The level of polarisation may be monitored by for instance acquiring solid state ^13C-NMR signals of the probe during microwave irradiation. Generally, a saturation curve is obtained in a graph showing NMR signal vs. time. […] A solid state ^13C-NMR measurement suitably consists of a simple pulse-acquire NMR sequence using a low flip angle. The signal intensity of the dynamic nuclear polarised nuclei, i.e. ^13C nuclei in ^13C-fumaric acid or ^13C-fumarate is compared with the signal intensity of the ^13C nuclei in ^13C-fumaric acid or ^13C-fumarate before DNP. The polarisation is then calculated from the ratio of the signal intensities before and after DNP.
To a micro test tube was added ^13C1,4-fumaric acid (33.5 mg, 0.284 mmol), TRIS (42 mg, 0.347 mmol) and 22.5 μl water. The test tube was gently heated and sonicated to dissolve all compounds. […] Polarisation was followed by solid state ^13C-NMR and the solid state polarisation was determined to be 25%.

mouse hind leg muscle = assay: In vivo 13C-MR spectroscopy of mouse leg before and after ischemic injury; design: species or system C57Bl/6 mouse
Method: 175 μl of an imaging medium comprising hyperpolarised sodium ^13C1,4-fumarate which was prepared as described in Example 2 was injected into a C57Bl/6 mouse over a time period of 6 s. The sodium ^13C1,4-fumarate concentration in said imaging medium was about 50 mM. A surface coil (tuned for carbon) was positioned around the leg muscle and signals of ^13C-fumarate and ^13C-malate were detected by ^13C-MR spectroscopy which was carried out in a 2.4 T Bruker spectrometer to generate a metabolic profile. A total of 60 ^13C-spectra were acquired with a repetition time of 2 s and 15 degree RF pulses. Ischemia in a mouse leg muscle was made by strangulation of the hind leg muscle. Following an ischemic period of 30 min the mouse leg muscle was re-perfused for one hour. In this Example, the ^13C-malate signal is approximately 0.5% of the ^13C-fumarate signal in the mouse muscle before ischemia. Following ischemia and 5 min. reperfusion the ^13C-malate signal is approximately 1.5% of the ^13C-fumarate signal. After 60 min. reperfusion the ^13C-malate signal is approximately 4% of the ^13C-fumarate signal. With an identical protocol signals of ^13C-pyruvate and ^13C-lactate were detected by ^13C-MR spectroscopy (polarisation of pyruvate was carried out as described in Example 2 of WO-A-2006/011809).

[3] = tested on: MDA-MB-231 cells (human epithelial breast cell adenocarcinoma); assay: In vitro 13C-MR detection, conversion of 13C-fumarate to 13C-malate; assay type: cell-based
Method: (§1) 50 μl (2.7 mM in sodium ^13C1-fumarate-d2) of an imaging medium which was prepared according to Example 3 was mixed into 8*10^6 MDA-MB-231 cells (human epithelial breast cell adenocarcinoma). Signals of ^13C-fumarate and ^13C-malate were detected by acquiring a set of ^13C-MR spectra every 5 s with a 15 degree RF pulse. The result is shown in FIG. 1: ^13Cmalate was building up over time. The conversion rate was 70 μmol/min*g soluble protein with a peak ^13C-malate signal after approximately 30 s. With an identical protocol conversion rates were calculated for three other human cancer cell lines, these are compared in Table 1.
(§2) Table. […] Formation of ^13C1,4-malate-d2 from ^13C1-fumarate is calculated for the 4 investigated cell lines (n≧3). […] This cell line is highly invasive and hormone-insensitive and represents a late stage cancer. Formation rate of malate varies greatly between the two prostate cancer lines, with a 7 times higher conversion rate in the more aggressive PC-3 line, compared to DU-145.

DU-145 cells = assay: as above; assay type: cell-based, human; conditions: n≧3
Method: as §1, §2

PC-3 cells = assay: as above; assay type: cell-based, human
Method: as §1, §2

H-EMC-SS cells = assay: as above; assay type: cell-based, human; conditions: n≧3
Method: as §1, §2

[4] = tested on: Dicarboxylate Transporter (DCT); assay: In vitro hyperpolarized malate production with transporter inhibition; assay type: cell-based
[5] = tested on: subcutaneous mouse lymphoma (EL-4); assay: 13C-dynamic imaging of subcutaneous mouse lymphoma with and without etoposide treatment; assay type: in vivo, C57Bl/6 mouse; conditions: EL-4 tumours, 22-26 hours after etoposide injection, n=5, signal normalized to maximum fumarate signal
Method: EL-4 cells were injected into a C57Bl/6 mouse to generate a subcutaneous mouse lymphoma. On day 9 after implantation, the EL4 tumour was imaged. 175 μl of an imaging medium comprising hyperpolarised sodium ^13C1-fumarate-d2 which was prepared as described in Example 3 was injected into the mouse over a time period of 6 s. The sodium ^13C1-fumarate-d2 concentration in said imaging medium was about 20 mM. A surface coil (tuned for carbon) was positioned over the subcutaneous tumour and signals of ^13C-fumarate and ^13C-malate were detected by ^13C-MR spectroscopy which was carried out using a 2.4 T Bruker spectrometer to generate a metabolic profile of the tumour and the surrounding healthy tissue. A slice selective FID was acquired with a 10° RF flip angle, TR=3 s, and 60 repetitions. […] Signal amplitudes for both malate and fumarate were normalized to the maximum fumarate signal and were measured as a function of time. […] Fumarase may be an ideal candidate enzyme for this because it requires no cofactors for its activity (so its activity is solely determined by the availability of the enzyme and the substrate) and the rate of conversion is very fast in vivo (about ˜2-4 fold faster than lactate dehydrogenase) making it a sensitive test.

cells = assay: Further in vitro experiments, malate production after etoposide treatment; assay type: cell-based

Compound: CC(=O)[13C](=O)O [^13C-pyruvate, reference compound]
13C-lactate signal relative to pyruvate signal (mouse hind leg muscle; 60 min reperfusion): back to levels comparable to the healthy muscle
13C-lactate signal relative to pyruvate signal (mouse hind leg muscle; directly after ischemia): increases to above the pyruvate signal
13C-lactate signal as % of the 13C-pyruvate signal (mouse hind leg muscle; healthy muscle): approximately 40%

Compound: [Cl-].[Li+] [lithium chloride]
change in hyperpolarized malate production ([4]; provisional experiments with lithium chloride): only a small reduction

Compound: COc1cc([C@@H]2c3cc4c(cc3[C@@H](O[C@@H]3O[C@@H]5CO[C@@H](C)O[C@H]5[C@H](O)[C@H]3O)[C@H]3COC(=O)[C@H]23)OCO4)cc(OC)c1O [etoposide]
malate signal compared to untreated tumours [5]: 65%
malate production (cells; after 14 hrs of treatment with etoposide): increase in malate production
malate production (cells; after 16 hrs of treatment with etoposide): further increase

Compound: O=C(O)CCC(=O)O [succinate]
change in malate production ([4]; excess (50 mM) of unlabelled, non-hyperpolarized succinate added): only a small reduction

Second part, led by results:

T1 [1]: 34 s
Liquid state polarisation [1]: 21%
Compound: O=[13C](O)/C=C/[13C](=O)O [^13C1,4-fumarate]

solid state polarisation [2]: 41%
Compound: [2H]/C(C(=O)O)=C(/[2H])[13C](=O)O [^13C1-fumaric acid-d2]

T1 [1]: 44 s
Liquid state polarisation [1]: 40%
Compound: [2H]/C(C(=O)[O-])=C(/[2H])[13C](=O)[O-].[Na+].[Na+] [sodium ^13C1-fumarate-d2]
conversion rate (fumarate to malate) ([3]; 8*10^6 MDA-MB-231 cells, 50 μl imaging medium (2.7 mM), FIG. 1): 70 μmol/min*g soluble protein
Malate formation rate ([3]; MDA-MB-231 cells, n≧3): 77 ± 19 μmol min^−1 g^−1 protein
time of peak 13C-malate signal ([3]; MDA-MB-231 cells, spectra every 5 s): approximately 30 s
Malate formation rate (DU-145 cells): 6 ± 2 μmol min^−1 g^−1 protein
Malate formation rate (PC-3 cells; PC-3 cells, n≧3): 42 ± 0.5 μmol min^−1 g^−1 protein
conversion rate in PC-3 compared to DU-145 (PC-3 cells; prostate cancer lines PC-3 vs DU-145): 7 times
Malate formation rate (H-EMC-SS cells): 40 ± 14 μmol min^−1 g^−1 protein

T1 [1]: 34 s
Liquid state polarisation [1]: 29%
Compound: O=[13C]([O-])/C=C/[13C](=O)[O-].[Na+].[Na+] [sodium ^13C1,4-fumarate]
13C-malate signal as % of the 13C-fumarate signal (mouse hind leg muscle; 30 min ischemia, 5 min reperfusion): approximately 1.5%
13C-malate signal as % of the 13C-fumarate signal (mouse hind leg muscle; 30 min ischemia, 60 min reperfusion): approximately 4%
13C-malate signal as % of the 13C-fumarate signal (mouse hind leg muscle; mouse muscle before ischemia): approximately 0.5%

solid state polarisation [2]: 30%
Compound: O=[13C](O)/C=C/[13C](=O)O [^13C1,4-fumaric acid]

solid state polarisation [2]: 25%
Compound: TRIS-^13C1,4-fumarate
